Data as given in US12083182B2, “Controlled-release CNP agonists with increased NEP stability” (ASCENDIS PHARMA GROWTH DISORDERS A/S, priority 2016, dated 2024).

Assays:
[1] = Evaluation of cardiovascular effects in the conscious telemetered mouse (subcutaneous administration); type: in vivo, Crl:CD1(ICR) mice; settings: 800 μg CNP-38 (eq)/kg sc
Experimental: Male Crl:CD1(ICR) mice (age range 8-13 weeks and body weight range 27.3-35.6 g at start of dosing) were surgically implanted with a TA11PA-C10 telemetry transmitter (Data Sciences International (DSI)) in the carotid artery. The body of the transmitter was placed subcutaneously in the lateral flank of the mouse. The mice were dosed subcutaneously in a latin square crossover design with at least 72 hours between dosing occasions. […] At least four mice were included at each dose level. Blood pressure (systolic (SAP), diastolic (DAP) and mean (MAP) and heart rate (HR, derived from blood pressure), were recorded using a digital data capture system linked with a DSITM Ponemah data acquisition and analysis system. The capture system allowed recording of the cardiovascular parameters whilst the mice were in individual cages. On the day of each test session the animals were weighed and a predose recording was performed for at least 60 min prior to dosing. Each mouse was returned to the home cage and the cardiovascular parameters were recorded for approximately 48 hours postdose. Blood pressure and HR were reported at the following time points: −30, −20, −10, 5, 15 and 30 min postdose and 1, 2, 6, 12, 18, 24, 30, 36, 42 and 48 hours postdose. Each time point was presented as the average value of five minute's recording prior to the time point. The monitoring period was selected to cover exposure to the test items both prior to and after Tmax.

[2] = Pharmacokinetic profile of CNP-38 after subcutaneous single-dose administration to cynomolgus monkeys; type: in vivo; settings: single s.c. 40 μg/kg
Experimental: This study was performed in order to test the pharmacokinetics of CNP-38 after subcutaneous (s.c.) administration in cynomolgus monkeys. Three male monkeys (2-4 years old, 3-5 kg) received a single s.c. injection at a dose of 40 μg/kg of CNP-38. Blood samples were collected at 5, 10, 15, 30, 45 min and 1, 2, 4, 8 hours upon dose.
Method: Plasma levels of CNP were analysed using a commercially available competitive radioimmuno-assay (RK-012-03, Phoenix Pharmaceuticals, CA). The assay was applied essentially as described by the manufacturer. The assay is based on competitive binding between 125I-labelled CNP (supplied in the kit) and unlabeled CNP (from study sample or calibrants) to an anti-CNP antibody. […] By measuring the amount of 125I-labelled CNP bound as a function of the concentration of peptide, it is possible to construct a calibration curve from which the concentration of peptide in the sample can be determined.
A few changes to the supplied assay protocol were made. These changes included using in-house CNP calibrant and QC samples to secure consistency between assay runs. […] Due to matrix effects in monkey plasma, the minimal required dilution was set at 1:10, yielding an assay range of 150-1080 μg/mL CNP.

[3] = in vivo; cited from earlier work
[4] = doses up to 15 μg/kg, healthy volunteers; cited from earlier work

For `CC[C@H](C)[C@@H]1NC(=O)[C@H](CCCNC(=N)N)NC(=O)[C@H](CC(=O)O)NC(=O)[C@H](CC(C)C)NC(=O)[C@H](CCCCN)NC(=O)[C@H](CC(C)C)NC(=O)CNC(=O)[C@H](Cc2ccccc2)NC(=O)[C@@H](NC(=O)CNC(=O)[C@H](CCCCN)NC(=O)[C@H](CO)NC(=O)[C@H](CC(C)C)NC(=O)CNC(=O)[C@H](CCCCN)NC(=O)[C@H](CCCCN)NC(=O)[C@H](CC(N)=O)NC(=O)[C@H](C)NC(=O)CNC(=O)[C@H](CCCCN)NC(=O)[C@H](Cc2ccc(O)cc2)NC(=O)[C@H](CCCCN)NC(=O)[C@H](CCCNC(=N)N)NC(=O)[C@H](C)NC(=O)[C@H](CC(N)=O)NC(=O)[C@@H]2CCCN2C(=O)[C@H](Cc2c[nH]cn2)NC(=O)[C@H](CCC(=O)O)NC(=O)[C@H](CCC(N)=O)NC(=O)[C@@H](N)CC(C)C)CSSC[C@@H](C(=O)O)NC(=O)CNC(=O)[C@H](CC(C)C)NC(=O)CNC(=O)[C@H](CO)NC(=O)[C@H](CCSC)NC(=O)[C@H](CO)NC(=O)CNC1=O` [CNP-38], the “effect on heart rate (HR)” value ([1]; up to 48 hours postdose) was “not impacted”, the “effect on blood pressure (MAP)” value ([1]; 5, 15 and 30 min post dose, CNP-38: 3 of 4 animals) was “significant decrease in MAP” and the “MAP 5 min post dose (mean±SD)” value ([1]; 5 min post dose) was 102.0 ± 7.5 mmHg. The “MAP 15 min post dose (mean±SD)” value ([1]; 15 min post dose) was 89.5 ± 29.4 mmHg, the “MAP 30 min post dose (mean±SD)” value ([1]; 30 min post dose) was 99.5 ± 25.2 mmHg and the “MAP predose (mean±SD)” value ([1]; predose) was 106.8 ± 13.4 mmHg. For the same molecule, the tolerability [2] was “well tolerated”.
In the case of BMN-111, the half-life [3] is given as 20 min and the blood pressure effect [4] is given as “mild hypotension”.
